Results taken from ChEMBL document CHEMBL1201862, “PubChem BioAssay data set” (2004).
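Five concentrations, 48 hours, 96-well plates. At the GI50, growth is halved.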 Calls of active or inactive are those of the source. Cut-off read from the data, not from the text of the source: active = GI50 up to about 1.1 µM and inactive = higher.

Columns and labels:
Assay in all cases: NCI anticancer screen, dose series, 48 h
[1] = system: ACHN
[2] = system: KM12
[3] = system: SF-295
[4] = system: DMS-114
[5] = system: A549
[6] = system: PC-3
[7] = system: CAKI-1
[8] = system: NCI-H522
[9] = system: T47D
[10] = system: RXF 393
[11] = system: MDA-MB-231
[12] = system: NCI/ADR-RES
[13] = system: UACC-257
[14] = system: HOP-18
[15] = system: HCT-15
[16] = system: RXF 631
[17] = system: DU-145
[18] = system: HOP-62
[19] = system: M14
[20] = system: SNB-78
[21] = system: KM-20L2
[22] = system: SNB-75
[23] = system: K562
[24] = system: 786-0
[25] = system: MDA-MB-435
[26] = system: DMS-273
[27] = system: COLO 205
[28] = system: A498
[29] = system: EKVX
[30] = system: HT-29
[31] = system: SK-MEL-2
[32] = system: HCT-116
[33] = system: SF-268
[34] = system: SK-MEL-5
[35] = system: SF-539
[36] = system: SW-620
[37] = system: NCI-H460
[38] = system: MOLT-4
[39] = system: RPMI-8226
[40] = system: UO-31
[41] = system: UACC-62
[42] = system: NCI-H23
[43] = system: HOP-92
[44] = system: NCI-H226
[45] = system: SK-OV-3
[46] = system: TK-10
[47] = system: SR
[48] = system: SNB-19
[49] = system: OVCAR-8
[50] = system: HL-60
[51] = system: LOX IMVI
[52] = system: MCF7
[53] = system: SN12C
[54] = system: XF498
[55] = system: Malme-3M
[56] = system: CCRF-CEM
[57] = system: SK-MEL-28
[58] = system: OVCAR-5
[59] = system: IGROV-1
[60] = system: U-251
[61] = system: LXFL 529
[62] = system: MDA-N
[63] = system: OVCAR-3
[64] = system: M19-MEL
[65] = system: Hs-578T

COc1ccc(/C(Cl)=C(\C=O)c2ccc([N+](=O)[O-])cc2)cc1OC
GI50 [1]: 8.83 µM (inactive) | GI50 [2]: 20.4 µM (inactive) | GI50 [3]: 13.4 µM (inactive) | GI50 [4]: 5.78 µM (inactive) | GI50 [5]: 24.7 µM (inactive) | GI50 [6]: 8.71 µM (inactive) | GI50 [7]: 9.08 µM (inactive) | GI50 [8]: 4.07 µM (inactive) | GI50 [9]: 6.9 µM (inactive) | GI50 [10]: 3.76 µM (inactive) | GI50 [11]: 13.8 µM (inactive) | GI50 [12]: 6.38 µM (inactive) | GI50 [13]: 11.5 µM (inactive) | GI50 [14]: 10.5 µM (inactive) | GI50 [15]: 5 µM | GI50 [16]: 12.4 µM (inactive) | GI50 [17]: 19.2 µM (inactive) | GI50 [18]: 22.7 µM (inactive) | GI50 [19]: 7.28 µM (inactive) | GI50 [20]: 4.3 µM (inactive) | GI50 [21]: 12.2 µM (inactive) | GI50 [22]: 3.62 µM (inactive) | GI50 [23]: 3.62 µM (inactive) | GI50 [24]: 4.29 µM (inactive) | GI50 [25]: 3.24 µM (inactive) | GI50 [26]: 11.8 µM (inactive) | GI50 [27]: 14.2 µM (inactive) | GI50 [28]: 20.5 µM (inactive) | GI50 [29]: > 33.3 µM (inactive) | GI50 [30]: 14.2 µM (inactive) | GI50 [31]: 21 µM (inactive) | GI50 [32]: 6.15 µM (inactive) | GI50 [33]: 6.73 µM (inactive) | GI50 [34]: 8.2 µM (inactive) | GI50 [35]: 12.5 µM (inactive) | GI50 [36]: 6.12 µM (inactive) | GI50 [37]: 9.27 µM (inactive) | GI50 [38]: 3.05 µM (inactive) | GI50 [39]: 2.87 µM (inactive) | GI50 [40]: 12.2 µM (inactive) | GI50 [41]: 3.92 µM (inactive) | GI50 [42]: 4.26 µM (inactive) | GI50 [43]: 7.28 µM (inactive) | GI50 [44]: 11.4 µM (inactive) | GI50 [45]: 26.7 µM (inactive) | GI50 [46]: 13.4 µM (inactive) | GI50 [47]: 3.03 µM (inactive) | GI50 [48]: > 46.5 µM (inactive) | GI50 [49]: 7.64 µM (inactive) | GI50 [50]: 2.7 µM (inactive) | GI50 [51]: 2.87 µM (inactive) | GI50 [52]: 3.72 µM (inactive) | GI50 [53]: 5.73 µM (inactive) | GI50 [54]: 7.4 µM (inactive) | GI50 [55]: 14.6 µM (inactive) | GI50 [56]: 2.44 µM (inactive) | GI50 [57]: 13.1 µM (inactive) | GI50 [58]: 5.13 µM (inactive) | GI50 [59]: 17.3 µM (inactive) | GI50 [60]: 6.32 µM (inactive) | GI50 [61]: 3.23 µM (inactive) | GI50 [62]: 3.25 µM (inactive) | GI50 [63]: 11.5 µM (inactive) | GI50 [64]: 11 µM (inactive) | GI50 [65]: 5.69 µM (inactive)
